Data on five molecules can be found in PMC8654833 (Scientific Reports, 2021).

One assay deals with Ca^2+ channel, ds. Nature of the assay: Radioligand binding competition dose-response (Euroscreen), Ca2+ channel diltiazem site. The protocol:
(§1) This study included binding assays (87 GPCR targets), measured as % of binding inhibition of a reference radioligand, as well as uptake and enzyme assays (19 targets), the latter measured as % inhibition of control enzyme activity. […] It was performed by radioligand binding competition by Euroscreen (Euroscreen FAST, Belgium). The following nanomolar concentrations were tested in duplicate: 0.001, 0.01, 0.1, 1, 10, 100, 1000, 10,000. Dose–response curves were fitted with the least squares method. IC50 results are shown as pIC50, corresponding to the negative log10 of IC50 in molar.

For the next assay, the target named is T1, DAT (Homo sapiens, UniProt Q01959).
T1 construct: Euroscreen FAST (contract assay)
The experiment in a line: Radioligand binding competition dose-response (Euroscreen), dopamine transporter. The conditions noted are these: dose-response study, maximal concentration 10 µM, [3H]WIN 35,428; read-out: %Binding inhibition at 10 µM. The protocol: as §1

The target in a further assay is 5-HT2A (Homo sapiens, UniProt P28223). Nature of the assay: biochemical. The conditions noted are these: read-out: %Binding inhibition at 10 µM. How it is done:
as §1

A further assay deals with T2, 5-HT5A (Homo sapiens, UniProt P47898).
T2 construct: Euroscreen FAST (contract assay)
The experiment in a line: Radioligand binding competition dose-response (Euroscreen), 5-HT5A. The following applies: dose-response study, maximal concentration 10 µM, [3H]LSD. The protocol: as §1

Another assay has as its target Ca^2+ channel, vs. Nature of the assay: Radioligand binding competition dose-response (Euroscreen), Ca2+ channel verapamil site. How it is done: as §1

5-HT2A, sequence (P28223 whole entry, species assumed): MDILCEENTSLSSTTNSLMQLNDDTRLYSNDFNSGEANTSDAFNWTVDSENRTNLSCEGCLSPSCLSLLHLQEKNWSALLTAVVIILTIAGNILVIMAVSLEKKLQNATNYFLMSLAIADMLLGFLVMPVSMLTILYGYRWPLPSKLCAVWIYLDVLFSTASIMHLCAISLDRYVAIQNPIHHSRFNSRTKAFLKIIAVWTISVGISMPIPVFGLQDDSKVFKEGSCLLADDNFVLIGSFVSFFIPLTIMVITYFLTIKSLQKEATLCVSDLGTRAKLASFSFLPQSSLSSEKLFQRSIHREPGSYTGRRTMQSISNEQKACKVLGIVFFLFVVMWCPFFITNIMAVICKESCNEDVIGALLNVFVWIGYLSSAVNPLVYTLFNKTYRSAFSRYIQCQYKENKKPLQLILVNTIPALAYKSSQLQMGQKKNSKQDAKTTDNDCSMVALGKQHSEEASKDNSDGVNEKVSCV
T1 sequence (Q01959 whole entry, species assumed): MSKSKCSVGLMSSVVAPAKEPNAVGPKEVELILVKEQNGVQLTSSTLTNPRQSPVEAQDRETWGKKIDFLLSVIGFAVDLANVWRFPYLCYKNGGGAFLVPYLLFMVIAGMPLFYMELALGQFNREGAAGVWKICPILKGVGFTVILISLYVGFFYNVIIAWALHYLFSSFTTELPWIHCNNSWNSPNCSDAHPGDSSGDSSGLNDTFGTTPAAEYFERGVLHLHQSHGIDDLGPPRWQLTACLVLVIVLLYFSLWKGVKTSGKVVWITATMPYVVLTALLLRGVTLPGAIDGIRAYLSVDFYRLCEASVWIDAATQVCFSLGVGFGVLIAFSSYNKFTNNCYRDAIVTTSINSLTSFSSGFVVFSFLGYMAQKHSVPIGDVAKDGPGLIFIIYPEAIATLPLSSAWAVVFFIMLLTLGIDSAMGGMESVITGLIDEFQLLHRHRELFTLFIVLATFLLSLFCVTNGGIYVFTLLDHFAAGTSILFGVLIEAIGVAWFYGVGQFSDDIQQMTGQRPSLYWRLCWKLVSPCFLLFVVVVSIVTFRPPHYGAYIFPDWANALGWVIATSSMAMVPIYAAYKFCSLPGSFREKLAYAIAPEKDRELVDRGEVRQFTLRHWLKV
T2 sequence (P47898 whole entry, species assumed): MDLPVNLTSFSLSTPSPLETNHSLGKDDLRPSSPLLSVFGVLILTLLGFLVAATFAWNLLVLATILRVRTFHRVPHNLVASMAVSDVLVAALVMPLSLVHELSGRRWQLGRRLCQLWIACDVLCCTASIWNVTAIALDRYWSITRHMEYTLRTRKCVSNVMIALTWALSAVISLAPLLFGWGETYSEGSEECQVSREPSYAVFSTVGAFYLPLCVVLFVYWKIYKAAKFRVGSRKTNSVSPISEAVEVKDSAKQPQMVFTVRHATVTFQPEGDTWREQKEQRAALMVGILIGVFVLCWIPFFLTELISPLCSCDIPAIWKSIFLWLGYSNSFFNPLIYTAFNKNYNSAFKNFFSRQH

What is called pIC50 is the IC50 on a negative log10 scale, so that one unit is a factor of ten. Higher therefore signals a low IC50. In turn, `COc1ccc([C@@H]2Sc3ccccc3N(CCN(C)C)C(=O)[C@@H]2OC(C)=O)cc1` [Diltiazem] gave a pIC50 at Ca^2+ channel, ds ([3H]diltiazem competition) of 4.79. In the assay with Ca^2+ channel, ds (dose-response study, maximal concentration 10 µM, [3H]diltiazem), the “%Binding inhibition at 10 µM” value came to 116.63%.
A word on the inhibition: it is the relative decrease from the control value, in per cent. As for `Fc1ccc(C(OCCN2CCN(CCCc3ccccc3)CC2)c2ccc(F)cc2)cc1` [GBR 12909], the inhibition at 10 µM on DAT was 104%.
Regarding `O=C(c1ccc(F)cc1)C1CCN(CCn2c(=O)[nH]c3ccccc3c2=O)CC1` [Ketanserin], on 5-HT2A, the inhibition at 10 µM was 103%.
In the case of `CSc1ccc2c(c1)C(N1CCN(C)CC1)Cc1ccccc1S2` (stereo not shown) [Methiothepin], the “%Binding inhibition at 10 µM” value on 5-HT5A is reported as 101.21%.
With `COc1ccc(CCN(C)CCCC(C#N)(c2cc(OC)c(OC)c(OC)c2)C(C)C)cc1OC` (stereo not shown) [Methoxyverapamil], the pIC50 at Ca^2+ channel, vs ([3H]D888 competition) came out at 6.56. Also, in the assay on Ca^2+ channel, vs (dose-response study, maximal concentration 10 µM, [3H]D888), the “%Binding inhibition at 10 µM” value was 112.06%.
